# Target: recombinant form of Glutaminase 1 (GAC) (Homo sapiens, UniProt O94925)
# Experiment: Recombinant Enzyme Assay (GAC coupled to GDH, NADH absorbance, no preincubation)
# Type: biochemical
# Details: no preincubation; read-out: GAC Delta N2 IC50 no preinc
# Outline: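 GAC (4 nM) in Tris-HCl pH 8.0 with 150 mM K2HPO4, EDTA, BSA, DTT, plus 4 units/ml GDH and 4 mM ADP, without preincubation. Absorbance at 340 nm was read kinetically for 15 min at 20° C. Slopes (mAU/min) were compared with DMSO-only and control-compound wells on the same plate.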
row,IC50 [nM],SMILES
1,620,CO[C@@H](C(=O)Nc1nnc(CCCCc2nnc(NC(=O)[C@H](OC)c3ccccc3)s2)s1)c1ccccc1 [Compound 147]
2,> 50000,CC(=O)O[C@H](C(=O)Nc1nnc(CCSCCc2nnc(NC(=O)[C@@H](OC(C)=O)c3ccccc3)s2)s1)c1ccccc1 [Compound 71]
3,280,O=C(Nc1nnc(CCCCc2nnc(NC(=O)C3CC(O)c4ccccc43)s2)s1)C1CC(O)c2ccccc21 (centres unmarked) [Compound 94]
4,> 50000,CC(O)(C(=O)Nc1nnc(CCSCCc2nnc(N)s2)s1)C(F)(F)F (centres unmarked) [Compound 56]
5,19000,O=C(C[C@@H](O)C(=O)O)Nc1nnc(CCCCc2nnc(NC(=O)C[C@@H](O)C(=O)O)s2)s1 [Compound 154]
6,40000,O=C(Cn1cccn1)Nc1nnc(CCSCCc2nnc(NC(=O)Cn3cccn3)s2)s1 [Compound 57]
7,> 50000,O=C(CC1CCCC1)Nc1nnc(CCSCCc2nnc(NC(=O)CC3CCCC3)s2)s1 [Compound 58]
8,> 20000,CC(=O)Nc1nnc(CCSCCc2nnc(N)s2)s1 [Compound 357]
9,150,COc1ccc(CC(=O)Nc2nnc(CCSCCc3nnc(NC(=O)Cc4ccc(OC)cc4)s3)s2)cc1 [Compound 161]
10,> 50000,O=C(CC1CCCC1)Nc1nnc(CCCCc2nnc(NC(=O)CC3CCCC3)s2)s1 [Compound 61]
11,1700,O=C(Nc1nnc(CCCc2nnc(NC(=O)C(O)c3ccccc3)s2)s1)C(O)c1ccccc1 (centres unmarked) [Compound 172]
12,640,O=C(Cc1ccccc1)Nc1ccc(CCCCc2nnc(NC(=O)C(OC(=O)CCN3CCOCC3)c3ccccc3)s2)nn1 (centres unmarked) [Compound 334]
13,> 20000,O=C(Cc1ccc(Cl)s1)Nc1nnc(CCSCCc2nnc(NC(=O)Cc3ccc(Cl)s3)s2)s1 [Compound 206]
14,> 20000,O=C(Cc1csc2ccccc12)Nc1nnc(CCSCCc2nnc(NC(=O)Cc3csc4ccccc34)s2)s1 [Compound 212]
15,100,COc1ccc(OC)c(CC(=O)Nc2nnc(CCCCc3nnc(NC(=O)Cc4ccccc4)s3)s2)c1 [Compound 271]
16,120,O=C(Cc1ccccc1)Nc1nnc(CCCCc2nnc(NC(=O)Cc3ccc(F)c(O)c3F)s2)s1 [Compound 346]
17,660,O=C(Cc1ccccc1Br)Nc1nnc(CCSCCc2nnc(NC(=O)Cc3ccccc3Br)s2)s1 [Compound 283]
18,800,O=C(Cc1ccco1)Nc1nnc(CCSCCc2nnc(NC(=O)Cc3ccco3)s2)s1 [Compound 82]
19,14000,O=C(Nc1nnc(CCSCCc2nnc(NC(=O)C3Oc4ccccc4O3)s2)s1)C1Oc2ccccc2O1 [Compound 134]
20,> 20000,O=C(Cc1ccccc1)Nc1nnc(C[C@@H]2C[C@H]2Cc2nnc(NC(=O)Cc3ccccc3)s2)s1 [Compound 1035]
21,890,N#Cc1ccc(CC(=O)Nc2nnc(CCSCCc3nnc(NC(=O)Cc4ccc(C#N)cc4)s3)s2)cc1 [Compound 216]
22,19000,CC1(C)OC(=O)[C@@H](CC(=O)Nc2nnc(CCCCc3nnc(NC(=O)C[C@H]4OC(C)(C)OC4=O)s3)s2)O1 [Compound 103]
23,2700,Cn1cc(CC(=O)Nc2nnc(CCCCc3nnc(NC(=O)Cc4cn(C)c5ccccc45)s3)s2)c2ccccc21 [Compound 201]
24,1500,COC(=O)C(CC(=O)Nc1nnc(CCCCc2nnc(NC(=O)CC(C(=O)O)c3ccccc3)s2)s1)c1ccccc1 (centres unmarked) [Compound 178]

row,SMILES,IC50 [nM]
1,COc1ccccc1CC(=O)Nc1nnc(CCSCCc2nnc(NC(=O)C(CO)c3ccccc3OC)s2)s1 (centres unmarked) [Compound 246],400
2,O=C(Cc1cccc(-c2cccnc2)c1)Nc1nnc(CCCCc2nnc(NC(=O)Cc3cccc(-c4cccnc4)c3)s2)s1 [Compound 312],> 20000
3,CCOC(=O)Nc1nnc(CCCCc2nnc(NC(=O)Cc3ccccc3)s2)s1 [Compound 244],840
4,CC(C)(C)OC(=O)Nc1cccc(CC(=O)Nc2nnc(CCCCc3nnc(NC(=O)Cc4cccc(NC(=O)OC(C)(C)C)c4)s3)s2)c1 [Compound 327],> 20000
5,Cc1cccc(CC(=O)Nc2nnc(CCSCCc3nnc(NC(=O)Cc4cccc(C)c4)s3)s2)c1 [Compound 247],190
